Where no end group is shown, it is not given here. [ ]: non-standard residue; d: D form. pGlu = O=C1CC[C@@H](C(=O)O)N1
Assays:
Format in all cases: cell-based, human
[1] = tested on: Patient 14 TCC-01; assay: IFN-γ ELISpot with T cell clone; conditions: TCC Patient 14 TCC-01 (Table 5); mean no antigen 11.3, high background, SFU >25 considered as positive responses
Description: (§1) Peripheral blood mononuclear cells (PBMC) were isolated from heparinized whole blood using Ficoll-Paque™ Plus density-gradient centrifugation (GE Healthcare). IFN-γ ELISpot (Mabtech) was set up as previously described^8.
(§2) Isolation of TCC from CD patients was carried out as previously described^8. Briefly, CFSE-labeled PBMC were incubated with antigen for 7 days in IMDM supplemented with 5% heat-inactivated pooled human serum (PHS), 2 mM GlutaMAX™, 100 μM MEM non-essential amino acids (both from Gibco, Invitrogen), and 50 μM 2-mercaptoethanol (Sigma). Proliferated cells were single-cell sorted into 96-well plates containing IL-2, IL-4, anti-CD3 mAb, irradiated feeder cells (allogeneic PBMC and JY-EBV). TCC were expanded and maintained in IL-2 and IL-4 and tested for specificity by ELISpot with irradiated HLA-matched PBMC as antigen-presenting cells. Expanded clones were tested for HLA-DQ restriction, TCR Vbeta usage, and with lysine scans to work out minimal epitopes. See Table 1 below for TCC and epitope information.

[2] = tested on: Patient 2 TCC-01; assay: IFN-γ ELISpot with T cell clone; conditions: TCC Patient 2 TCC-01 (Table 5); mean no antigen 1.1
Description: as §1, §2

[3] = tested on: Patient 6 TCC-01; assay: IFN-γ ELISpot with T cell clone; conditions: TCC Patient 6 TCC-01 (Table 5); mean no antigen 2
Description: as §1, §2

[4] = tested on: PBMC; assay: IFN-γ ELISpot on PBMC of CD patients after 3-day barley challenge; conditions: after barley challenge
Description: Australian Caucasian HLA-DQ2.5^+ and/or HLA-DQ8^+ CD subjects were recruited by advertisement in the Coeliac Society of Victoria newsletter and all had biopsy-proven CD conforming to ESPGHAN criteria. Patients had been on strict gluten free diet for at least 4 weeks prior to commencing grain challenge. Patients underwent 3-day grain challenge with oats, barley, or combined wheat, barley, and rye muffins, and 6 days after commencement, blood was collected. Day 0 responses were not observed in the selection of patients tested, as described previously^8.
Oats challenge consisted of 100 g dry weight daily of one of three commercial brands of oats: one not tested for wheat contamination (Uncle Toby's; Oats #1), and two shown by R5 ELISA to contain less than 20 ppm wheat gluten (Tilquhilie Pudding; Oats #2 and Freedom Food; Oats #3). Barley challenge consisted of pearl barley (Ward McKenzie) cooked into a risotto (150 g dry weight daily) and the wheat challenge consisted of four 50 g slices of wheat bread daily (Baker's Delight white loaf cut to toasting thickness). The combined wheat, barley, and rye challenge consisted of muffins baked with wheat flour (White Wings), barley flour (Four Leaf Milling), and rye flour (Four Leaf Milling; 22-25 g dry weight each daily). A symptom diary based on a […] Likert scale was completed by participants daily from baseline until day 6.
Two avenin peptide libraries were utilized for epitope screening. These were designed using avenin sequences from GenBank and a customized algorithm, as previously described^9. The initial library consisted of 199 screening-grade 20 mers including all possible 12 mers (Mimotopes). This library was screened with and without tTG pre-treatment. The second library consisted of additional avenin sequences that were synthesized with glutamate substitution at sites predicted to be deamidated by published algorithms^10, 11 removing the requirement for tTG treatment. This library contained 369 screening-grade 20 mers, including all possible 12 mers (Pepscan). The second round avenin library contained wild-type and deamidated versions of the most immunogenic sequences (25 high quality 16 mers from Mimotopes). High quality peptides containing previously described immunogenic sequences from wheat, barley, and rye were used to test for cross-reactivity^8 (Pepscan). High quality hordein and avenin peptides for TCC testing and biochemical studies were ordered from Pepscan, Mimotopes, or GL Biochem.
as §1

| Substance | IFN-γ ELISpot response (raw SFU) [1] [SFU] | IFN-γ ELISpot response (raw SFU) [2] [SFU] | IFN-γ ELISpot response (raw SFU) [3] [SFU] | IFN-γ ELISpot response (raw SFU) ([4]; Patient 1, peptide 50 μg/ml) [SFU] | significant SFU as a percentage of maximal peptide SFU ([4]; Patient 1, peptide 50 μg/ml) | IFN-γ ELISpot response (raw SFU) ([4]; Patient 2, peptide 50 μg/ml) [SFU] | significant SFU as a percentage of maximal peptide SFU ([4]; Patient 2, peptide 50 μg/ml) | IFN-γ ELISpot response (raw SFU) ([4]; Patient 3, peptide 50 μg/ml) [SFU] | significant SFU as a percentage of maximal peptide SFU ([4]; Patient 3, peptide 50 μg/ml) |
| --- | --- | --- | --- | --- | --- | --- | --- | --- | --- |
| pEQPFPQPEQPTPIQ ([pGlu]QPFPQPEQPTPIQ) [rye peptide, AAB58403.1 (65-78) [Q65 to pyroglutamate, Q72 to E], reference compound] | 20 | 1 | 34 | – | – | – | – | – | – |
| QPYPEQEQPILEEELLLQQQ [oats avenin peptide, CBL51491.1 (22-41) [Q28, Q33, Q34, Q35 to E]; one of two coded A01] | – | 275 | 16 | – | – | – | – | – | – |
| FPEQPVPEQPQPYP [barley peptide, 1103203B (30-43) [Q32 to E, Q37 to E]] | 78 | 2 | 99 | – | – | – | – | – | – |
| pEPFPEQPEQPYPQQ ([pGlu]PFPEQPEQPYPQQ) [wheat peptide, CAC11056.1 (53-66) [Q53 to pyroglutamate, Q57 to E, Q60 to E], reference compound] | 19 | 150 | 1 | – | – | – | – | – | – |
| pEPEQPFPEQPQQII ([pGlu]PEQPFPEQPQQII) [rye peptide, AAB58403.1 (187-200) [Q187 to pyroglutamate, Q189 to E, Q194 to E], reference compound] | 58 | 0 | 0 | – | – | – | – | – | – |
| EQYQPYPEQEQPFVQQQPPF [avenin library peptide] | – | 283 | 30 | 99 | * (*: 20-40%) | 192 | *** (***: >70%) | 14 | (^: 5-10%) |
| FPEQPIPEQPQPYP [barley peptide, 1103203A (30-43) [Q232 to E, Q37 to E]] | 66 | 1 | 92 | – | – | – | – | – | – |
| pEQPFPEQPFPEQPQPY ([pGlu]QPFPEQPFPEQPQPY) [barley peptide, AFM77740.1 (21-36) [Q21 to pyroglutamate, Q26 to E, Q31 to E]] | 27 | 229 | 64 | – | – | – | – | – | – |
| PQPYPEQPQPFPQQPP [barley peptide, 1103203B (39-54) [Q44 to E]] | 12 | 292 | 69 | – | – | – | – | – | – |

Source: patent US20160238590A1, “COMPOSITIONS AND METHODS RELATED TO OAT SENSITIVITY” (IMMUSANT, INC., priority 2013, published 2016)
